Results from ChEMBL document CHEMBL1201862, “PubChem BioAssay data set” (2004).
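Dose response: 5 concentrations. Exposure: 48 h. Format: 96-well plates. Endpoint: linear interpolation; highest concentration if not reached. GI50 = concentration required for 50% inhibition of growth.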 Active and inactive are the calls of the source. Cut-off read from the data, not from the text of the source: active = GI50 up to about 1.1 µM and inactive = higher. Residues, ends and D or L forms follow the SMILES beside them. *: point of attachment. Boc = CC(C)(C)OC(=O)*

Columns and labels:
Assay in all cases: NCI anticancer screen, dose series, 48 h
Hs-578T = system: Hs-578T
MDA-N = system: MDA-N
MDA-MB-435 = system: MDA-MB-435
MDA-MB-231 = system: MDA-MB-231
LXFL 529 = system: LXFL 529
DLD-1 = system: DLD-1
HOP-18 = system: HOP-18
XF498 = system: XF498

Compound	GI50 (Hs-578T)	GI50 (MDA-N)	GI50 (MDA-MB-435)	GI50 (MDA-MB-231)	GI50 (LXFL 529)	GI50 (DLD-1)	GI50 (HOP-18)	GI50 (XF498)
OCC1COc2cc(Cl)c(Cl)cc2O1 (stereo not given)	> 10 µM (inactive)	> 10 µM (inactive)	> 10 µM (inactive)	> 10 µM (inactive)	–	–	–	–
COC(=O)[C@]1(C)CCCn2c(=O)n(-c3ccccc3)c(=O)n21	> 100 µM (inactive)	–	> 100 µM (inactive)	> 100 µM (inactive)	–	–	–	–
CCCCCCCCCCCCCCCCP(=O)([O-])OCC[N+](C)(C)C	15.8 µM (inactive)	15.4 µM (inactive)	17.3 µM (inactive)	20.5 µM (inactive)	–	–	–	–
CC(C)(C)OC(=O)NC(Cc1ccccc1)C(=O)N[C@H]1c2ccsc2/C(=N/O)[C@H]1O (stereo not given in full)	–	> 100 µM (inactive)	> 100 µM (inactive)	> 100 µM (inactive)	–	–	–	–
CC(C)C(=O)Nc1cc(C(F)(F)F)ccc1[N+](=O)[O-]	> 100 µM (inactive)	> 100 µM (inactive)	> 100 µM (inactive)	> 100 µM (inactive)	–	–	–	–
O=C1OC(=O)c2c1cc1cc3c(cc1c2-c1ccc2c(c1)OCO2)OCO3	–	> 100 µM (inactive)	> 100 µM (inactive)	> 100 µM (inactive)	–	–	–	–
COC(=O)c1cc2c3c(cc(N(C)C)c2[nH]1)N(C(=O)c1cc2cc(OC)c(OC)c(OC)c2[nH]1)CC3CCl (stereo not given)	–	0.00427 µM (active)	0.00298 µM (active)	0.00419 µM (active)	–	–	–	–
O=C1O/C(=C\c2ccc(O)cc2)C(c2ccc(O)c(Cl)c2)=C1Br	11.6 µM (inactive)	8.57 µM (inactive)	15.7 µM (inactive)	21.8 µM (inactive)	–	–	–	–
CC(C)(C)OC(=O)NC(CSSCC(NC(=O)OC(C)(C)C)C(=O)O)C(=O)O (stereo not given)	> 100 µM (inactive)	> 100 µM (inactive)	> 100 µM (inactive)	> 100 µM (inactive)	–	–	–	–
Cc1ccc2nc(NC(=O)/C(Cc3nc4ccc(Cl)cc4nc3O)=N\NC(C)(C)C)sc2c1	18.2 µM (inactive)	> 100 µM (inactive)	> 100 µM (inactive)	> 100 µM (inactive)	–	–	–	–
Cc1cc(C)c(S(=O)(=O)N(CCCCCCN)OCCCN)c(C)c1	13.8 µM (inactive)	17.5 µM (inactive)	62.1 µM (inactive)	10.7 µM (inactive)	–	–	–	–
N#CC(=S)Nc1ccc(F)cc1	–	52.1 µM (inactive)	38 µM (inactive)	> 100 µM (inactive)	–	–	–	–
CCOC(=O)C(NC(=O)c1cccc(Cl)c1)(Nc1ccc(S(=O)(=O)Nc2cc(C)on2)cc1)C(F)(F)F (stereo not given)	> 100 µM (inactive)	> 100 µM (inactive)	> 100 µM (inactive)	> 100 µM (inactive)	–	–	–	–
CCCCCCCCCCCCOCCOCCOCCOCCOCCOCC(=O)NC(Cc1ccccc1)C(=O)Oc1ccc([N+](=O)[O-])cc1 (stereo not given)	41.2 µM (inactive)	27.7 µM (inactive)	30.6 µM (inactive)	60.3 µM (inactive)	–	–	–	–
CC1C(/C=C/c2ccoc2)ON2CCCC12 (stereo not given)	–	–	–	–	> 100 µM (inactive)	> 100 µM (inactive)	> 100 µM (inactive)	–
CCN(CC)CCNC(=O)c1cc2cc(NC(=O)c3cc4cc(NC(=O)c5cc6cc(N)ccc6[nH]5)ccc4[nH]3)ccc2[nH]1	> 100 µM (inactive)	> 100 µM (inactive)	> 100 µM (inactive)	> 100 µM (inactive)	–	–	–	–
COC(CC1(/C=C/O[Si](C(C)C)(C(C)C)C(C)C)C(=O)N(COCC[Si](C)(C)C)c2ccccc21)OC (stereo not given)	> 100 µM (inactive)	24.9 µM (inactive)	23.2 µM (inactive)	21.1 µM (inactive)	–	–	–	–
COc1ccc(-c2nc(-c3cnccn3)n(Cc3ccccc3)n2)cc1	–	> 100 µM (inactive)	> 100 µM (inactive)	> 100 µM (inactive)	–	–	–	–
CN1c2ccccc2N(C(=O)c2ccc([N+](=O)[O-])cc2)C(CC(=O)O)c2cccn21 (stereo not given)	–	–	–	–	> 100 µM (inactive)	> 100 µM (inactive)	–	> 100 µM (inactive)
S=C(N/N=C/c1ccccn1)N1CCCCCC1	11.5 µM (inactive)	0.0773 µM (active)	0.148 µM (active)	< 0.01 µM (active)	–	–	–	–
COC(C(O)c1ccc2c(c1)OCO2)P(=O)(c1ccccc1)c1ccccc1 (stereo not given)	–	–	–	–	–	88.7 µM (inactive)	–	> 100 µM (inactive)
COc1ccc(CC2(O)C3CC4CCC2C4C3)cc1 (stereo not given)	85.3 µM (inactive)	–	> 100 µM (inactive)	–	–	–	–	–
CC1CCC2C(C(=O)O[C@H]3C4CCO[C@@H](OC5OC(CO)C(O)C(O)C5O)C4[C@@]4(CO)O[C@@H]34)=CO[C@@H](OC3OC(CO)C(O)C(O)C3O)C12 (stereo not given in full)	> 10 µM (inactive)	> 10 µM (inactive)	> 10 µM (inactive)	> 10 µM (inactive)	–	–	–	–
COc1cc(C2c3cc4c(cc3[C@@H](Oc3ccc(F)cc3)C3COC(=O)[C@H]23)OCO4)cc(OC)c1O (stereo not given in full)	–	–	–	–	–	0.656 µM (active)	87.1 µM (inactive)	–
COC(=O)C1OC2(CCCC3CC32)O[C@H]1C(=O)OC (stereo not given in full)	> 100 µM (inactive)	> 100 µM (inactive)	> 100 µM (inactive)	> 100 µM (inactive)	–	–	–	–
COc1cc2c(cc1OC)-c1c3c(cc4c1[C@@H](C2)N(C)CC4)OCO3	–	–	–	–	–	6 µM (inactive)	18.2 µM (inactive)	–
CC(NC(=O)C(NC(=O)OC(C)(C)C)C(C)C)C(=O)N1CCCC1C(=O)NCC(=O)NC(C(=O)NCC(=O)O)C(C)C (stereo not given) (Boc-VAPGVG-OH; configuration not given here)	–	> 100 µM (inactive)	> 100 µM (inactive)	92.3 µM (inactive)	–	–	–	–
CCOc1cc(C=O)ccc1O [ETHYL VANILLIN]	> 100 µM (inactive)	> 100 µM (inactive)	> 100 µM (inactive)	> 100 µM (inactive)	–	–	–	–
